{"source": "patent US6982148B2", "about": "“Progressive elevated gene-3 (PEG-3) induces aggressive cancer phenotype and regulates angiogenesis” (The Trustees of Columbia University in the City of New York, priority 1999, dated 2006)", "key": {"PEG-3": {"tested_on": "PEG-3", "experiment": "PEG-3 mRNA and transcription after DNA damage", "assay_type": "cell-based, rat", "conditions": "following DNA damage", "description": "The specific role of the gadd34/MyD116 gene in cellular physiology is not known. Like hamster gadd34 and its murine homologue MyD116, PEG-3 steady-state mRNA and RNA transcriptional levels are increased following DNA damage by methyl methanesulfonate (MMS) and gamma irradiation (γIR) (FIGS. 2 and 5 and data not shown). In contrast, nuclear run-on assays indicate that only the PEG-3 gene is transcriptionally active (transcribed) as a function of transformation progression (FIG. 5). This is apparent in CREF cells transformed by Ha-ras and in E11-NMT and various E11-NMT subclones either expressing or not expressing the progression phenotype (FIG. 5). The gadd34/MyD116 gene, as well as the gadd45, MyD118 and gadd153 genes, encode acidic proteins with very similar and unusual charge characteristics (24). PEG-3 also encodes a putative protein with acidic properties similar to the gadd and MyD genes (FIG. 3). The carboxyl-terminal domain of the murine MyD116 protein is homologous to the corresponding domain of the herpes simplex virus 1 γ134.5 protein, that prevents the premature shutoff of total protein synthesis in infected human cells (35,36). Replacement of the carboxyl-terminal domain of γ134.5 with the homologous region from MyD116 results in a restoration of function to the herpes viral genome, i.e., prevention of early host shutoff of protein synthesis (36). […]"}, "VEGF": {"tested_on": "VEGF", "experiment": "VEGF transcription and steady-state mRNA in E11 cells after transient PEG-3 transfection", "assay_type": "cell-based, rat", "conditions": "added 4 hr after PEG-3 transfection of E11 cells", "description": "Transfection of PEG-3 into E11 cells induces steady-state VEGF mRNA. E11 cells were transfected with a pZeoSV/PEG-3 or pZeo SV vector, 4 hr later replicate cultures received cycloheximide and 30 hr later total RNA was extracted and analyzed by Northern blotting for PEG-3, VEGF, Ad5 ElA and GAPDH mRNA expression.\nNucleic Acid Analyses. Steady-state levels of PEG-3, VEGF, ElA, and GAPHD mRNA were determined by Northern analysis of total cytoplasmic RNA using appropriate multiprimed ^32P-labeled cloned cDNA probes as described previously (18,19). Briefly, 10 μg of total RNA from the different cell types were electrophoresed in a 1% agarose gel, transferred to a nylon membrane and hybridized with the different ^32p-labeled CDNA fragments. The membrane was stripped and hybridized with indicated probes sequentially. […]\nTo examine further the relationship between PEG-3 and VEGF, experiments were performed to determined if transient ectopic expression of PEG-3 in rodent and human tumor cells could elevate VEGF expression. E11 cells were transfected with a PEG-3 expression construct, nuclei were isolated and evaluated for elevated VEGF transcription and total cytoplasmic RNA was isolated and steady-state VEGF mRNA levels were determined by Northern blotting (FIG. 8 and data not shown). […]"}}}
{"smiles": "COS(C)(=O)=O", "note": "[MMS, methyl methanesulfonate]", "values": [{"measurement": "PEG-3 steady-state mRNA and RNA transcriptional levels", "setting": "PEG-3", "value": "increased"}]}
{"smiles": "C[C@@H]1C[C@@H]([C@H](O)CC2CC(=O)NC(=O)C2)C(=O)[C@@H](C)C1", "note": "[cycloheximide]", "values": [{"measurement": "Effect on PEG-3 induced elevation of VEGF transcription and RNA", "setting": "VEGF", "value": "prevented"}]}
